Measured values published in patent US6384040B1, “Condensed 4-thioxopyrimidine derivatives as microbicides” (Syngenta Crop Protection, Inc., priority 1998, dated 2002).

Experiments:
[1] = tested on: Uncinula necator; experiment: Action against Uncinula necator on vines; assay type: in vivo; conditions: vine cuttings sprayed with 200 ppm a.i., infected 24 hours later, evaluation ca. 14 days after infection
Protocol: Example B-3: Action Against Uncinula necator on Vines
5 week old vine cuttings are sprayed with a spray mixture (200 ppm a.i.) prepared from a wettable powder formulation of the test compound. The plants are infected 24 hours later by conidias from strongly infested vine leafs that are shaken off over the test plants. The plants are then incubated at 26° C. and 60% relative humidity. The evaluation of the fungal infestation is made ca. 14 days after infection.

melting point [°C] | SMILES | control activity [1]
95 to 97 | CCCCn1c(OCCC)nc2sc(Br)cc2c1=S [Compound 4, 6-bromo-3-butyl-2-propoxy-4-thioxo-thieno[2,3-d]pyrimidine] | complete control activity
 | CCCOc1nc2sc(Cl)cc2c(=S)n1CCC [Compound 1, 6-Chloro-2-propoxy-3-propyl-4-thioxo-thieno[2,3-d]pyrimidine] | complete control activity
68 to 70 | CCCCn1c(OCCC)nc2sc(Cl)cc2c1=S [Compound 3, 3-butyl-6-chloro-2-propoxy-4-thioxo-thieno[2,3-d]pyrimidine] | complete control activity
110 to 112 | CCCOc1nc2sc(Br)cc2c(=S)n1CCC [Compound 2, 6-bromo-2-propoxy-3-propyl-4-thioxo-thieno[2,3-d]pyrimidine] | complete control activity
